The target of assay [1] is T1, CB2 receptors (Homo sapiens, UniProt P34972). Nature of the assay: Radioligand competition binding of [^3H]-CP55940, CHO-K1 cell membranes. Also on record: host or cells: CHO-K1 beta-arrestin cells. The following applies: [^3H]-CP55940 0.3 nM, n=13. How it is done:
(§1) CHO-K1 beta-arrestin cells (DiscoveRx Inc., Fremont, Calif.) expressing human CB1 and human CB2 were cultured in F-12 Nutrient Mixture (HAM) supplemented with 10% FBS, 300 μg ml-1 hygromycin and 800 μg ml-1 geneticin (G418). Cells were incubated in a humidified atmosphere at 37° C. with 5% CO2.
(§2) Stably transfected cells or spleen tissue were homogenized in 15 mmol L-1 Hepes, 0.3 mmol L-1 EDTA, 1 mmol L-1 EGTA, 2 mmol L-1 MgCl2, complete EDTA-free protease inhibitor (Roche Applied Science, Rotkreuz, Switzerland), pH 7.4 using a glass potter and centrifugation at 47,800 g at 4° C. for 30 min. The pellet was then rehomogenized twice in the same buffer and centrifuged (47,800 g, 4° C., 30 min). […]
(§3) For competition binding, membrane preparations were incubated either with 0.3 nM of [^3H]-CP55940 in the presence or absence of increasing concentrations of unlabeled (R^1═CH3) compound of formula (I) or with 1.5 nM compound of formula (I) and increasing amounts of membranes (2.5-80 μg) in the presence or absence of CP55940 (10 μM) for 60 min at 30° C. in a final volume of 0.2 mL of 50 mmol L-1 Tris-HCl, 5 mmol L-1 MgCl2, 2.5 mmol L-1 EGTA, 0.1% fatty acid-free BSA and 1% DMSO, pH 7.4, buffer, gently shaking. […] IC50 values and Hill slopes were determined by a four parameter logistic model using ActivityBase (ID Business Solution, Ltd.).

The target of assay [2] is T2, human CB1 receptors (Homo sapiens, UniProt P21554).
T2 construct: host or cells: CHO-K1 beta-arrestin cells
The assay is described as above. The conditions noted are these: [^3H]-CP55940 0.3 nM, n=6. Here is the method:
as §1, §2, §3

For assay [3], the target named is T3, CB2 receptors (Mus musculus, UniProt P47936).
T3 construct: from tissue; host or cells: mouse spleen (wild type)
Nature of the assay: Radioligand binding (1.5 nM) with increasing amounts of membranes, mouse spleen tissue WT. The conditions noted are these: 1.5 nM radioligand. How it is done: (§4) Stably transfected cells or spleen tissue were homogenized in 15 mmol L-1 Hepes, 0.3 mmol L-1 EDTA, 1 mmol L-1 EGTA, 2 mmol L-1 MgCl2, complete EDTA-free protease inhibitor (Roche Applied Science, Rotkreuz, Switzerland), pH 7.4 using a glass potter and centrifugation at 47,800 g at 4° C. for 30 min. The pellet was then rehomogenized twice in the same buffer and centrifuged (47,800 g, 4° C., 30 min). The final pellet was then resuspended in 75 mmol L-1 Tris, 0.3 mmol L-1 EDTA, 1 mmol L-1 EGTA, 12.5 mmol L-1 MgCl2, 250 mmol L-1 sucrose, pH 7.4 at a protein concentration of 1 to 3 mg mL-1, aliquoted, frozen on dry ice and stored at −80° C.
as §3

The nature of assay [4]: Radioligand binding using mouse spleen KO (CB2 deficient mice). The following applies: mouse spleen tissue from CB2 deficient mice, increasing amounts of membranes. How it is done:
as §4, §3

In assay [5] the target is T4, mouse CB2 receptors (Mus musculus, UniProt P47936).
T4 construct: from tissue; host or cells: mouse spleen (wild type)
Nature of the assay: Radioligand saturation binding using mouse spleen tissue WT. Here is the method:
as §4
Saturation binding was performed with 0.05 to 2.4 nM compound of formula (I) and 40 μg of membrane protein. CP55940 (10 μM) was used to define nonspecific binding. Assay buffer consisted of 50 mmol L-1 Tris-HCl, 5 mmol L-1 MgCl2, 2.5 mmol L-1 EGTA, and 0.1% fatty acid-free BSA, pH 7.4. Assays were initiated by addition of membranes in a final volume of 250 μl/well. Assays were incubated for 2 h at room temperature and then vacuum filtered and rinsed with wash buffer (50 mmol L-1 Tris-HCl, 5 mmol L-1 MgCl2, 2.5 mmol L-1 EGTA, and 0.5% fatty acid-free BSA, pH 7.4) on a Filtermate cell harvester through Packard GF/B filters presoaked in 0.3% polyethylenimine.

For assay [6], the target named is T1, CB2 receptors. Nature of the assay: Binding of HU-910 / [^3H]-HU-910 to CB2 receptors. The conditions noted are these: CB2 receptors labeled with [^3H]-CP55940.

T4 sequence (P47936 whole entry): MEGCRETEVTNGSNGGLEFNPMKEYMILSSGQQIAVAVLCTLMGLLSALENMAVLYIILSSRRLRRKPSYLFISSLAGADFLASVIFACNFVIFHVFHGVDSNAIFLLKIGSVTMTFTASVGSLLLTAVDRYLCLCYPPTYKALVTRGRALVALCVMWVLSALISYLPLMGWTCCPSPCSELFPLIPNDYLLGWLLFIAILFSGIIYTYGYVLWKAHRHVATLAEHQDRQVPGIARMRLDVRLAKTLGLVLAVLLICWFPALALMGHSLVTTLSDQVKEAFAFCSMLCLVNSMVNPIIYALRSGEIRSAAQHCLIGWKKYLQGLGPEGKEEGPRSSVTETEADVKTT
T1 sequence (P34972 whole entry): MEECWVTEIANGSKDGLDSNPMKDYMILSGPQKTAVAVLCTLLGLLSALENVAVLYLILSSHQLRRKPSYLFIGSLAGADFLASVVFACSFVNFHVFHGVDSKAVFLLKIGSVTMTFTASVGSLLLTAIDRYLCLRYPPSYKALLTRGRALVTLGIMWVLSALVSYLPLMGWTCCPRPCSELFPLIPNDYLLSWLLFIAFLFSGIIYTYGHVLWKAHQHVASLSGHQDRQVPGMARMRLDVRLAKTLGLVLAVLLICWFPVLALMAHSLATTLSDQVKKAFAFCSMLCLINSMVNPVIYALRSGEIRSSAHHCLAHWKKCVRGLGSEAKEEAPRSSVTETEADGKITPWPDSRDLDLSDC
T3 sequence (P47936 whole entry): as the sequence (P47936 whole entry) above
T2 sequence (P21554 whole entry): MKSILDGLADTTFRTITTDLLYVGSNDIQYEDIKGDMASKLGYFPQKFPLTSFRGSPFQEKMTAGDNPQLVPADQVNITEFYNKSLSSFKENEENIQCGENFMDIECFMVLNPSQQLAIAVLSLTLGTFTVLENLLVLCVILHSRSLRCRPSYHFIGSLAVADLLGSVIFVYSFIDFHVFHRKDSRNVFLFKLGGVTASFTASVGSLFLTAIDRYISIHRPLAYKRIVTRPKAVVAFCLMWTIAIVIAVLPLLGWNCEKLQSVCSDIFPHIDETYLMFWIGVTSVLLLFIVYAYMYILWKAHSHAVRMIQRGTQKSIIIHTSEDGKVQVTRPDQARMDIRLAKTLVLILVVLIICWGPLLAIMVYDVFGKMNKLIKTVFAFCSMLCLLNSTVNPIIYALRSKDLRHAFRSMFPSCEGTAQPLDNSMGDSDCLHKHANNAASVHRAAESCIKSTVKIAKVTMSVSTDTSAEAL

Broadly, the Ki is the dissociation constant of the complex between target and ligand, obtained from inhibition or displacement. A higher Ki goes with a looser hold on the target. For `Cn1c(C(C)(C)C)cc(=NC(=O)c2cc(C(F)(F)F)ccc2OCC(C)(C)O)n1CC1CCC1`, the Ki in assay [1] is 1.07 nM; in assay [2] it was 3890 nM.

The Kd is the equilibrium constant for the complex coming apart. With `[3H]C([3H])([3H])n1c(C(C)(C)C)c/c(=N\C(=O)c2cc(C(F)(F)F)ccc2OCC(C)(C)O)n1CC1CCC1` [Example 1, (NE)-N-[5-tert-butyl-2-(cyclobutylmethyl)-1-(tritritiomethyl)pyrazol-3-ylidene]-2-(2-hydroxy-2-methyl-propoxy)-5-(trifluoromethyl)benzamide], the results for the specific binding entry in assay [3] and in assay [4] were “high specific binding” and “lack of specific binding”, respectively. Further, the “saturability of specific binding” value in assay [5] is reported as “saturable”. Besides, the “CB2 receptor expression level (Bmax)” value in assay [5] (saturation binding) was determined as 430 fmol/mg. Moreover, the Kd in assay [5] (saturation binding, read-out: half maximal affinity (Kd)) came out at 0.58 nM.

Consider `CCCCCCC(C)(C)c1cc(OC)c(C2=C[C@H]3CC[C@]2(CO)C3(C)C)c(OC)c1` [HU-910], for which the “binding to CB2 receptors” value in assay [6] was “selectively and competitively binds to CB2 receptors”.

The record behind these values is US10227308B2, “Radiolabeled cannabinoid receptor 2 ligand” (Hoffmann-La Roche Inc., priority 2014, dated 2019).
